For test [1], the target named is T1, NOX (NADPH oxidase) (Homo sapiens, UniProt P04839).
T1 construct: endogenous in cells; host or cells: HL-60 cells differentiated with 1% DMSO, used as a sonicated homogenate supernatant (A1) or as viable cells (A2)
T1 sequence (P04839 2-570 limits assumed): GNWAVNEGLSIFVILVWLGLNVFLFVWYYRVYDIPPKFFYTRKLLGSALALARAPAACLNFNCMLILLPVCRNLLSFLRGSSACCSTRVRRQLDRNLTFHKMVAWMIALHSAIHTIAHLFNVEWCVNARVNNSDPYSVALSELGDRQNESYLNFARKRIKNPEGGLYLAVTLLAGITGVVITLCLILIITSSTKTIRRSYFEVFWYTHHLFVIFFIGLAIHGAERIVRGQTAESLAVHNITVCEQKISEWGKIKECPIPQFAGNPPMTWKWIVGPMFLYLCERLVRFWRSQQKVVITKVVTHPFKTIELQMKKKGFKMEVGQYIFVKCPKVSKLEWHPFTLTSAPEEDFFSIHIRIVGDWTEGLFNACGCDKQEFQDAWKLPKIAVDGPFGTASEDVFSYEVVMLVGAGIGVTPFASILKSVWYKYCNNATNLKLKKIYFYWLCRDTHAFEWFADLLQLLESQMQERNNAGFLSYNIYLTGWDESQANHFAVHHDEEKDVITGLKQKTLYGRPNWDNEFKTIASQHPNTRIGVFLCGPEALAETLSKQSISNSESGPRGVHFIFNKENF
T1 sequence (P13498 2-195 partner limits assumed): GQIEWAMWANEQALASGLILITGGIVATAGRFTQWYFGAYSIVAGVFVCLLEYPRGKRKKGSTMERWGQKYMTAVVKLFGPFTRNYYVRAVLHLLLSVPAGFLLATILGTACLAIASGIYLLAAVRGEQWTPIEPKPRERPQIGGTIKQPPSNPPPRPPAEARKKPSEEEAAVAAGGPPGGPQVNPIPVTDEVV
In words: NOX activity measurement in a cell-free system using a homogenate of differentiated HL-60 cells (NADPH consumption, fluorometry). Type of test: biochemical. As to conditions: for NOX inhibitory activity (distribution %): share of the black ginger extract's NOX inhibitory activity per compound. The source says: Human myeloid leukemia cell HL-60 repeats proliferation in an undifferentiated state but upon addition of DMSO (dimethyl sulfoxide), retinoic acid or the like, it is known to differentiate into mature granulocytes and lose the ability to proliferate, as accompanied by intracellular expression of NOX (NADPH oxidase) which also serves as an index for differentiation; the expressed NOX can be utilized as an enzyme source for evaluating NOX inhibitory activity.
To induce differentiation into NOX expressing granulocytes, undifferentiated HL-60 cells cultured in a 10% FBS supplemented RPMI 1640 medium were suspended in a 1% DMSO containing, 10% FBS supplemented RPM 11640 medium to give a density of 5×10^5 cells/ml, and the suspension was distributed among Petri dishes (i.d. 10 cm) in 15 ml portions and cultured in a CO2 incubator (37° C.) for three days; thereafter, 10 ml of a 1% DMSO containing, 10% FBS supplemented RPM 11640 medium was added into each of the Petri dishes and culture was performed for an additional three days, thus yielding differentiated HL-60 cells in which NOX was expressed. As described below, the differentiated HL-60 cells, either as a homogenate or in a viable state, were subjected to NOX activity measurement.
After being cooled with ice, the suspension was treated with a sonicator (Bioruptor UCD-250 HSA; product of Cosmo Bio Co., Ltd.) by repeating three cycles of a process under the condition of 4° C. or below that consisted of 20-sec disrupting at maximum power and 30-sec interval cooling, whereupon a cell homogenate was obtained. The homogenate was centrifuged at 1000 g for 4 minutes to remove debris; to the resulting supernatant, nine volumes of a reaction buffer (65 mM phosphate buffered solution containing 1 mM EGTA, 10 μM FAD and 170 mM sucrose; pH 7.0) were added to prepare a homogenate's supernatant for NOX activity measurement (equivalent to 1×10^7 cells/ml).
For reaction with NOX, 50 μl of the above-described cell homogenate was poured into each well of a 96-well microplate and after adding 25 μl of a 0.5 mM SDS solution as a NOX activator and 25 μl of a 0.4 mM NADPH solution as a substrate, the reaction was carried out at 25° C. for 30-90 minutes. The NOX activity was determined by measuring the rate of NADPH consumption through fluorometry (Ex: 355 nm/Em: 460 nm).

Test [2] relates to NFκB. In words: NFκB inhibiting action: nitrous acid production in LPS-stimulated RAW 264.7 cells (Griess reagent). The format is cell-based. As to conditions: Mus musculus, RAW264.7, 24 h; read-out: NFκB inhibition IC50. As to the method: It is known that when macrophage-like RAW 264.7 cells are stimulated with LPS (lipopolysaccharide), NFκB is activated, whereby the expression of iNOS (inducible NO synthetase) is enhanced, causing nitrous acid to accumulate in the culture broth due to the enzymatic activity of iNOS; the activation of NFκB can therefore be evaluated by measuring the buildup of nitrous acid in the culture broth.
RAW 264.7 cells were cultured in a 10% FBS supplemented RPMI 1640 culture broth. The cells were then suspended in the same culture broth to give a density of 4×10^5 cells/ml; the suspension was distributed on a 96-well microplate in 100 μl portions per well and subjected to pre-culture (in a CO2 incubator) for 24 hr. […] To measure NFκB inhibitory activity, a DMSO solution of each test sample was dissolved in the foregoing culture broth to make 3-fold serial dilutions having DMSO concentrations of 1% and less and absorbance was measured with and without adding the stimulant LPS.

The mark [3] stands for this setting: Example 4, cell-free system using a homogenate of differentiated HL-60 cells, methoxyflavonoid comparison, read-out: IC50 (μM), NOX inhibitory activity.
Setting [4] is: cell-free system using a homogenate.
Setting [5] is: Example 5, cell-free system using a homogenate, compounds extracted and fractionated from black ginger, read-out: NOX inhibition IC50.

SMILES strings stand for the structures. Where two headings read alike, the source gives them in different places.

Consider `COc1cccc(/C=C/C(=O)c2ccccc2O)c1OC` [2,3-Dimethoxy-2′-hydroxychalcone], for which the IC50 in test [1] (setting [3]) was above 100 µM. Take `COc1ccc(CCC(=O)c2c(O)cc(OC)cc2O)cc1` [2′,6′-Dihydroxy-4,4′-dimethoxydihydrochalcone]: in test [1] (setting [3]), the IC50 is above 100 µM. Take `COc1cc(O)c(C(=O)/C=C/c2ccccc2)c(O)c1` [2′,6′-Dihydroxy-4′-methoxychalcone]: the IC50 in test [1] (setting [3]) was above 100 µM. Same read-out and setting: the value for `COc1ccc2c(=O)c(OC)c(-c3ccc(OC)c(OC)c3)oc2c1` [3,7,3′,4′-tetramethoxyflavone] was above 100 µM; that for `CC(=O)c1cc2ccccc2oc1=O` [3-Acetylcoumarin] was above 100 µM; that for `O=c1cc(-c2ccc(O)c(O)c2)oc2ccccc12` [3′,4′-Dihydroxyflavone] was 75 µM. For the compound `COc1ccc(-c2cc(=O)c3ccccc3o2)cc1OC` [3′,4′-Dimethoxyflavone], the IC50 in test [1] (setting [3]) was found to be 15 µM. Regarding `COc1ccc(/C=C/C(=O)c2ccccc2)cc1` [4-Methoxychalcone], the 50% inhibitory concentration (IC50) in test [1] (setting [3]) is above 100 µM. In the case of `COc1ccc(C(=O)/C=C/c2ccccc2)cc1` [4′-Methoxychalcone], the IC50 in test [1] (setting [3]) is above 100 µM. Same read-out and setting: the value for `COc1cc(-c2cc(=O)c3c(OC)c(OC)c(OC)cc3o2)cc(OC)c1OC` [5,6,7,3′,4′,5′-Hexamethoxyflavone] was around 100 µM. `COc1ccc(-c2cc(=O)c3c(OC)c(OC)c(OC)c(OC)c3o2)cc1OC` [5,6,7,8,3′,4′-Hexamethoxyflavone]: in test [1] (setting [3]), the IC50 worked out at 80 µM. Moreover, the “NOX inhibitory activity (in words)” value in test [1] (setting [4]) was “not found to have any strong NOX inhibitory activity”. For the compound `COc1cc(OC)c2c(=O)cc(-c3cc(OC)c(OC)c(OC)c3)oc2c1` [5,7,3′,4′,5′-Pentamethoxyflavone], the IC50 in test [1] (setting [3]) was above 100 µM. Turning to `COc1ccc(-c2oc3cc(O)cc(O)c3c(=O)c2OC)cc1O` [5,7,3′-Trihydroxy-3,4′-dimethoxyflavone], the IC50 in test [1] (setting [3]) is around 100 µM.

For the compound `COc1cc(C2CC(=O)c3c(O)cc(O)cc3O2)cc(OC)c1OC` (centres unmarked) [5,7-Dihydroxy-3′,4′,5′-trimethoxyflavanone], the IC50 in test [1] (setting [3]) was above 100 µM. In the case of `COc1cc(C)c2c(=O)c(-c3ccccc3)coc2c1` [5-Methyl-7-methoxy-isoflavone], the 50% inhibitory concentration (IC50) in test [1] (setting [3]) was above 100 µM.

In the case of `O=c1cc(-c2ccc(O)c(O)c2)oc2c(O)c(O)ccc12` [7,8,3′,4′-Tetrahydroxyflavone], in test [1] (setting [3]), the IC50 was around 100 µM. As for `COc1ccc(-c2cc(=O)c3ccc(OC)c(OC)c3o2)cc1OC` [7,8,3′,4′-Tetramethoxyflavone], in test [1] (setting [3]), the IC50 was around 100 µM. Regarding `COc1cc2ccc(=O)oc2c(C(C)=O)c1OC` [8-Acetyl-6,7-dimethoxycoumarin], the IC50 in test [1] (setting [3]) is above 100 µM. Still for that read-out and setting: the value for `COc1c(O)cc2ccc(=O)oc2c1C(C)=O` [8-Acetyl-6-hydroxy-7-methoxycoumarin] was above 100 µM. For `CC(=O)c1c(O)ccc2ccc(=O)oc12` [8-Acetyl-7-hydroxycoumarin], the IC50 in test [1] (setting [3]) was above 100 µM. Still for that read-out and setting: the value for `COc1ccc2ccc(=O)oc2c1C(C)=O` [8-Acetyl-7-methoxycoumarin] was above 100 µM. Consider `COc1cc(OC)c2c(=O)cc(-c3ccc(OC)c(OC)c3)oc2c1` [KPEt-21, 5,7,3′,4′-Tetramethoxyflavone], for which the values for the half-maximal inhibitory concentration (IC50) in test [1] (setting [3]), in test [1] (setting [5]) and in test [2] were 8 µM, 38 µM and 6 µM, respectively. Also, in test [1] (Example 5), the “NOX inhibitory activity (distribution %)” value came out at 12%. In addition, in test [1] (setting [4]), the “NOX inhibitory activity (in words)” value was “strong NOX inhibitory activity”. On the same counts, the results for `COc1cc(OC)c2c(=O)c(OC)c(-c3ccc(OC)c(OC)c3)oc2c1` [KPEt-22, 3,5,7,3′,4′-Pentamethoxyflavone] are 23 µM, 70 µM, 32 µM, 45% and “strong NOX inhibitory activity”.

Take `COc1cc(OC)c2c(=O)cc(-c3ccccc3)oc2c1` [KPEt-23, 5,7-Dimethoxyflavone]: the results for the IC50 in test [1] (setting [5]) and in test [2] were 53 µM and 7 µM, respectively. The “NOX inhibitory activity (distribution %)” value in test [1] (Example 5) was 19%.

On to `COc1ccc(-c2cc(=O)c3c(OC)cc(OC)cc3o2)cc1` [KPEt-25, 5,7,4′-Trimethoxyflavone], for which the 50% inhibitory concentration (IC50) in test [1] (setting [5]) worked out at 53 µM; in test [2] it was 7 µM. For the same compound, in test [1] (Example 5), the “NOX inhibitory activity (distribution %)” value was determined as 21%. As for `COc1cc(O)c2c(=O)c(OC)c(-c3ccc(OC)c(OC)c3)oc2c1` [KPEt-41, 5-hydroxy-3,7,3′,4′-Tetramethoxyflavone], the IC50 in test [1] (setting [5]) was above 100 µM; in test [2] it was 55 µM. For `COc1cc(OC)c2c(=O)c(OC)c(-c3ccccc3)oc2c1` [KPEt-261, 3,5,7-Trimethoxyflavone] the same measures were above 100 µM and 27 µM.

As to `COc1ccc(-c2oc3cc(OC)cc(OC)c3c(=O)c2OC)cc1` [KPEt-262, 3,5,7,4′-Tetramethoxyflavone], the figures for the half-inhibitory concentration (IC50) in test [1] (setting [5]) and in test [2] were above 100 µM and 32 µM, respectively. On the same counts, the results for `COc1cc(O)c2c(=O)cc(-c3ccccc3)oc2c1` [KPEt-421, 5-hydroxy-7-Methoxyflavone] are above 100 µM and 42 µM. On the same counts, the results for `COc1ccc(-c2cc(=O)c3c(O)cc(OC)cc3o2)cc1` [KPEt-422, 5-hydroxy-7,4′-Dimethoxyflavone] are above 100 µM and 56 µM.

With `COc1cc(O)c2c(=O)c(OC)c(-c3ccccc3)oc2c1` [KPEt-431, 5-hydroxy-3,7-Dimethoxyflavone], the IC50 is above 100 µM in test [1] (setting [5]) and 29 µM in test [2]. For the compound `COc1ccc(-c2oc3cc(OC)cc(O)c3c(=O)c2OC)cc1` [KPEt-432, 5-hydroxy-3,7,4′-Trimethoxyflavone], the IC50 in test [1] (setting [5]) was above 100 µM; in test [2], 30 µM.

In the case of `CC(=O)OC(C)(C)[C@@H]1Cc2c(ccc3ccc(=O)oc23)O1` [o-Acetylcolumblanetin], in test [1] (setting [3]), the IC50 came out at 19 µM.

For the origin of these results see patent US20170071902A1, “NOX INHIBITOR AND NFkB INHIBITOR CONTAINING METHOXYFLAVONE” (SUNTORY HOLDINGS LIMITED, priority 2014, published 2017).
